One data set relates to fish. To be noted: in vivo; cited from earlier work.
For another data set, the system named is elasmobranch fishes. Description: anesthesia of elasmobranch fishes by immersion. Type of data set: in vivo, spiny dogfish Squalus acanthias. To be noted: 400-600 mg/L carvone alone, oil-in-water emulsion. From the text:
3. […] For examples spiny dogfish Squalus acanthias can be anesthetized by immersion.

Regarding `O=C=O` [carbon dioxide], the safety during anesthesia/euthanasia entry with fish is recorded as “Some fish died during anesthesia”.

As to `C=C(C)C1CC=C(C)C(=O)C1` (centres unmarked) [carvone], the anesthesia entry in the data set on elasmobranch fishes is “will anesthetize”.

(Values after patent US20110212196A1, “THERAPEUTIC OIL COMPOSITION CONTAINING CARVONE” (MAINE CONSERVATION MEDICINE CENTER, priority 2010, published 2011).)
